Assay results reported in patent US7846957B2, “Aromatase inhibition to enhance assisted reproduction” (Ares Trading S.A., priority 2001, dated 2010).

Experiments:
Format in all cases: in vivo, human
[1] = test system: patients who either failed to ovulate or ovulated with an endometrial thickness <5 mm in response to CC; assay: Letrozole cycles vs CC cycles in patients with inadequate response to CC (Example 2)
Description: HCG 10,000 IU was given to trigger ovulation. CC was given in a dose of 50-100 mg on days 3-7 or 5-9.

[2] = test system: PCOS and unexplained infertility undergoing IUI; assay: Letrozole for Ovulation Induction: Summary (Example 5)
Excerpt: Patient Group: PCOS and unexplained infertility undergoing IUI.
Results: Pregnancy rate was higher with Letrozole VS CC in both kinds of regimen, ovulation rate was higher with Letrozole VS CC in PCOS patients (not reported for unexplained fertility), endometrial thickness was better with Letrozole.

[3] = test system: infertile patients (3 with PCOS and 4 with unexplained infertility); assay: Letrozole alone in a single dose, ovarian stimulation and cycle monitoring for IUI (Example 3)
Description: The estradiol levels in 9 treatment cycles in 7 infertile patients (3 with PCOS and 4 with unexplained infertility) undergoing ovarian stimulation and cycle monitoring for IUI who received a single 20 mg dose of letrozole on day 3 of the cycle. Follicle development was monitored by transvaginal ultrasound and by serum levels of estradiol and LH.

[4] = mean, single 20 mg dose on day 3
[5] = mean, single 20 mg dose on day 3, listed as letrozole
[6] = single 20 mg dose on day 3, spread in brackets

CCN(CC)CCOc1ccc(C(=C(Cl)c2ccccc2)c2ccccc2)cc1.O=C(O)CC(O)(CC(=O)O)C(=O)O [CC]
Day of hCG administration, Mean ([1]; Mean): 12.6
Endometrial Thickness (Cm.), Mean ([1]; Mean): 0.5 Cm.
Estradiol (pmol/L) on day of hCG administration, Mean ([1]; Mean): 2145 pmol/L
Estradiol per mature follicle (pmol/L), Mean ([1]; Mean): 1278 pmol/L
Follicles > 1.5 Cm on day of hCG administration, Mean ([1]; Mean): 1.9
LH on day of hCG administration (IU/L), Mean ([1]; Mean): 16 IU/L
Number of Days from last letrozole tablet to hCG day, Mean ([1]; Mean): 4.4
Day of hCG administration, Median ([1]; Median): 12
Endometrial Thickness (Cm.), Median ([1]; Median): 0.4 Cm.
Estradiol (pmol/L) on day of hCG administration, Median ([1]; Median): 1668 pmol/L
Estradiol per mature follicle (pmol/L), Median ([1]; Median): 1486 pmol/L
Follicles > 1.5 Cm on day of hCG administration, Median ([1]; Median): 2
LH on day of hCG administration (IU/L), Median ([1]; Median): 8 IU/L
Number of Days from last letrozole tablet to hCG day, Median ([1]; Median): 4
Day of hCG administration, Range ([1]; Range): 11-16
Endometrial Thickness (Cm.), Range ([1]; Range): 0.4-0.8 Cm.
Estradiol (pmol/L) on day of hCG administration, Range ([1]; Range): 362 to 5210 pmol/L
Estradiol per mature follicle (pmol/L), Range ([1]; Range): 177 to 2404 pmol/L
Follicles > 1.5 Cm on day of hCG administration, Range ([1]; Range): 1-5
LH on day of hCG administration (IU/L), Range ([1]; Range): 3-66 IU/L
Number of Days from last letrozole tablet to hCG day, Range ([1]; Range): 2-7

N#Cc1ccc(C(c2ccc(C#N)cc2)n2cncn2)cc1 [Letrozole, letrozole]
ovulation rate ([2]; Letrozole VS CC in PCOS patients): higher
Pregnancy rate ([2]; Letrozole VS CC in both kinds of regimen (alone in PCOS; plus FSH in unexplained infertility)): higher
endometrial thickness ([2]; Letrozole vs CC): better
Pregnancy was achieved (patients) ([3]; 7 patients, 9 treatment cycles, single 20 mg dose): one
Estradiol on hCG day (pmol/L) [3, 4]: 831 (359) pmol/L
Estradiol/mature follicle (pmol/L) [3, 4]: 390 (74) pmol/L
Estradiol on hCG day [3, 5]: 831 pmol/L
Estradiol/mature follicle [3, 5]: 390 pmol/L
Endometrial thickness on hCG day (cm) [3, 6]: 0.9 (0.11) cm
Follicles > 1.5 cm [3, 6]: 2.29 (1.3)
LH (IU/L) [3, 6]: 19.1 (12.7) IU/L
